Experimental data: patent US8986696B2, “Trans-capsular administration of p38 map kinase inhibitors into orthopedic joints” (DePuy Mitek, Inc., priority 2007, dated 2015)
Entries after “also recorded” stand apart in the source; their conditions may differ.

Assays:
[1] = tested on: injured cartilage explants, PGE2 synthesis; assay: drop tower design model: PGE2 synthesis; format: cell-based, bovine; conditions: cocktail of cytokines
Text: The device comprises a vertical rail that guides a sliding weight from 0.1 kg to 3 kg directly onto a force transducer which is situated at the bottom of the device. A sphere-shaped 2 mm indenter resting on a specimen is located at the bottom of the vertical rail. The indenter is held by a stop screw. The specimen is rigidly attached to a tissue holder underneath the indenter, to avoid side movements, the specimen is rigidly attached to the tissue holder. In this manner, the force transducer transduces a force indirectly onto the specimen. Adjusting the weight of a mass and height from which the mass drops varies the magnitude of the intended impact. For example, a weight mass (e.g., […]) held by a weight holder can be released from a height of e.g., 36 cm and dropped onto the force transducer. […]
In the first method, bovine or human PBMCs were freshly prepared using Ficoll gradient by Lampire Biological Laboratories, Inc. PBMCs in RPMI w/10% FCS at delivery were spun down at 1500 rpm for twenty minutes and the cell pellet was washed twice with 1×PBS to wash off the residual Ficoll. […] Each conditioned medium was assessed for levels of pro-inflammatory cytokines to ensure their secretion from PBMC. […]
PGE2 was measured with STAT-Prostaglandin E2 EIA ELISA kit (Cayman Biochemicals), as described in Example III above. […]

[2] = tested on: human cancer cell lines; assay: cell proliferation in culture; format: cell-based; conditions: in 9 cell lines, read-out: inhibits cell proliferation in culture IC50
[3] = tested on: human tumor xenograft models; assay: human tumor xenograft models; conditions: in vivo
[4] = tested on: IL-1β-stimulated GAG release, bovine chondrocyte pellets / ARC tissues; assay: chondrocyte pellet culture model: GAG degradation; format: cell-based; conditions: ARC, 7.5 ng/ml IL-1, five days; JNJ 7706621 at 5 μM
Text: (§1) Calf articular cartilage was obtained from the knee joints of eight to twelve month old animals and was processed within twenty-four hours after sacrifice. After removal of muscle and ligament, the cartilage was kept moist using phosphate buffer solution (PBS) to prevent tissue dehydration, and was aseptically peeled off from subchondral bone with a scalpel, and the cartilage pieces were further minced into smaller pieces (˜0.3-0.5×˜0.2-0.5 cm cubes). […] Chondrocytes were then enzymatically isolated from the tissue by incubation for overnight at 37° C. with gentle agitation in 0.2% collagenase in Dulbecco's modified eagle media (DMEM). After removal of tissue debris by filtration through cell strainer and the residual collagenase by 3× wash in PBS, cells were finally resuspended at a density of 2.5×10^6 cells/ml in chondrocyte medium. A 1 ml aliquot of the cell suspension was dispensed into either a 15 ml Falcon centrifuge tube or a 96 deep-well plate and centrifuged at 2000×g for five minutes. The chondrocyte pellets were incubated at 37° C. in a humidified atmosphere of 5% CO2 for two to three weeks with a medium change every other day.
(§2) As an alternative to using calf articular cartilage, a commercial Alginate Recovered Chondrocytes (ARC) system was also used (Articular Engineering, LLC (Northbrook, Ill.)). Use of the commercial system cut down on labor and time in producing chondrocyte pellet. This system produced cartilaginous tissue in vitro using bovine chondrocytes. The first step consisted of culturing chondrocytes in alginate under conditions optimal for the formation of a cell-associated matrix (CM). The second step allowed these cells with their CM, after recovery, to rapidly form and become integrated into a solid mass of cartilage on a porous insert within two weeks. This tissue is rich in cells surrounded by a cell-associated matrix that is degraded rapidly when the cells are exposed to IL-1. ARC tissues in 3 mm punches at delivery were first dispensed into a 96 deep-well plate, one punch per well, for compound treatment. The subsequent procedures were the same as those used for the chondrocyte pellets.
(§3) Chondrocyte pellets were washed once with 1 ml of Chondrocyte Stimulation Medium and equilibrated in the same medium at room temperature for fifteen to thirty minutes. Compounds were dissolved in H2O, Ethanol or dimethyl sulfoxide (DMSO) (10^−2 M) according to suppliers' instructions and further diluted with Chondrocyte Stimulation Medium to the required concentrations. DMSO concentrations in the culture media should not exceed 1%; this concentration of DMSO has no effect on cartilage proteoglycan metabolism in response to cytokines.
[…] At the end of the incubation, media and pellets were harvested and frozen for further analysis. Pellets were also fixed as needed in 4% (w/v) paraformaldehyde in PBS for histology analysis.
(§4) Glycosaminoglycan (GAG) levels in the culture media were determined by measuring the amount of polyanionic material reacting with 1,9-dimethylmethylene blue (DME) as detected by absorbance at 525 nm, using shark chondroitin sulfate as a standard. The DME blue dye-binding solution was prepared by dissolving 16 mg of DME blue in a solution containing 0.304% glycine, 0.23% sodium chloride (NaCl), 9.5 mM hydrochloric acid (HCl), pH=3.0 with absorbance at 525 equal to 0.31. Proteoglycans and proteoglycan metabolites in chondrocyte pellet were released by digesting the pellet with 125 μg/ml of papain in 0.1 M PBS, pH 6.0, 5 mM cysteine, 5 mM ethylene-diamine-tetra-acetic acid disodium salt (Na2EDTA) at 50° C. for overnight. Results are reported as either micrograms of GAG per milliliter or percent of total GAG released into culture medium.

[5] = tested on: IL-1β-stimulated NO production, bovine chondrocyte pellets / ARC tissues; assay: chondrocyte pellet culture model: total nitrite/nitrate (NO); format: cell-based; conditions: ARC, 7.5 ng/ml IL-1, five days; JNJ 7706621 at 5 μM
Text: as §1, §2, §3
(§5) The pellets were first treated with compounds at desired concentrations at 37° C. for one hour and then incubated for three to five days in the absence or presence of 10 ng/ml of IL-1β. At the end of the incubation, media and pellets were harvested and frozen for further analysis. Pellets were also fixed as needed in 4% (w/v) paraformaldehyde in PBS for histology analysis.
Nitrate/Nitrite levels were measured using the Griess reaction (Green L. C. et al., “Analysis of Nitrate, Nitrite, and [15N]nitrate in Biological Fluids,” Anal. Biochem. 126: 131-138 (1982)) with aNitrate/Nitrite Colorimetric Assay Kit (Cayman Chemicals), the contents of which are incorporated herein by reference. The assay involved a simple two-step process. The first step involved conversion of nitrate in 50 μl of culture medium to nitrite utilizing nitrate reductase in a reaction volume of 100 μl at room temperature for two hours. The second step involved the addition of 50 μl of both Griess Reagent 1 and 2, which converted nitrite into a deep purple azo compound in ten minutes. Photometric measurement of the absorbance at 540 or 550 nm due to this azo chromophore accurately determined nitrite concentration. […]

[6] = tested on: IL-1β-stimulated PGE2 synthesis, bovine chondrocyte pellets / ARC tissues; assay: chondrocyte pellet culture model: PGE2; format: cell-based
Text: as §1, §2, §3, §5
(§6) Prostaglandin E2 (PGE2) was measured with a STAT-Prostaglandin E2 EIA ELISA kit (Cayman Biochemicals). This assay is based on the competition between PGE2 from 50 μl samples and a PGE2-alkaline phosphatase conjugate for a limited amount of PGE2 monoclonal antibody in a reaction volume of 150 μl at room temperature for one hour. The antibody-PGE2 complex bound to a goat polyclonal anti-mouse IgG that had been previously attached to the well. After washing to remove any unbound reagents, para-nitrophenyl phosphate (pNPP) was added to the well. The product of this enzymatic reaction absorbs strongly at 412 nm. Because of the large range in response to IL-1β and other cytokines, PGE2 values were converted to log scale prior to doing t-tests.

[7] = tested on: chondrocytes; format: cell-based
Text: as §1, §2, §3, §5
The LDH activity was determined colorimetrically in an enzymatic test based on the conversion of lactic acid to pyruvate in the presence of chromagenic substrate tetrazolium salt INT that was reduced to formazan.

[8] = tested on: cytokine-stimulated GAG release, human ARC tissues; assay: human ARC tissues: GAG degradation; format: cell-based
Method: as §4
(§7) ® infliximab is a monoclonal antibody against human TNFα. To test whether […]® could modulate cytokine-stimulated responses in chondrocytes, human chondrocyte pellets were first tested for an optimal concentration for cytokine stimulation. Human ARC (i.e., ARCs generated using human chondrocytes) tissues were treated with various concentrations of either TNF or IL-1 for four and five days. The culture media was collected for measurement of GAG content as described above. Other assays were performed as described above. Cytokine dosage at 5 ng/ml and treatment for five days gave a reasonable treatment window, yet was not too challenging for compound efficacy (FIG. 4).
(§8) Human ARC tissues were then treated with various concentrations of […]® in the presence or absence of either 10 ng/ml of TNFα or 5 ng/ml of IL-1β for four or five days.
(§9) The efficacy of a monoclonal antibody (mAb) against human IL-6 in inhibition of proteoglycan degradation, NO production and PGE2 synthesis on human ARC tissues stimulated with IL-6 was also tested. Human ARC tissue were treated with 12.5, 25 and 250 ng/ml of IL-6 mAb diluted into chondrocyte stimulation medium. […]

[9] = tested on: cytokine-stimulated NO production, human ARC tissues; assay: human ARC tissues: NO production; format: cell-based
Method: Nitrate/Nitrite levels were measured using the Griess reaction (Green L. C. et al., “Analysis of Nitrate, Nitrite, and [15N]nitrate in Biological Fluids,” Anal. Biochem. 126: 131-138 (1982)) with aNitrate/Nitrite Colorimetric Assay Kit (Cayman Chemicals), the contents of which are incorporated herein by reference. The assay involved a simple two-step process. The first step involved conversion of nitrate in 50 μl of culture medium to nitrite utilizing nitrate reductase in a reaction volume of 100 μl at room temperature for two hours. The second step involved the addition of 50 μl of both Griess Reagent 1 and 2, which converted nitrite into a deep purple azo compound in ten minutes. Photometric measurement of the absorbance at 540 or 550 nm due to this azo chromophore accurately determined nitrite concentration. This assay kit cannot be used for RPMI (Roswell Park Memorial Institute) derived tissue culture medium due to interference with the colorimetric reaction.
® infliximab is a monoclonal antibody against human TNFα. To test whether […]® could modulate cytokine-stimulated responses in chondrocytes, human chondrocyte pellets were first tested for an optimal concentration for cytokine stimulation. Human ARC (i.e., ARCs generated using human chondrocytes) tissues were treated with various concentrations of either TNF or IL-1 for four and five days. […]

[10] = tested on: cytokine-stimulated PGE2 synthesis, human ARC tissues; assay: human ARC tissues: PGE2 synthesis; format: cell-based; conditions: for PGE2 Inhibition: TNFα stimulated responses
Method: as §6, §7, §8, §9

[11] = at 1 ng/ml, TNFα stimulated responses

With CNC(=O)[C@H](Cc1ccccc1)NC(=O)[C@H](CC(C)C)[C@H](CSc1cccs1)C(=O)NO [Batimastat] the “PGE2 synthesis, inhibition” value [1] was “did not inhibit; also recorded: No effect”.
For Nc1nc(Nc2ccc(S(N)(=O)=O)cc2)nn1C(=O)c1c(F)cccc1F [JNJ 7706621, 4-[5-Amino-1-(2,6-difluoro-benzoyl)-1H-[1,2,4]triazol-3-ylamino]-benzenesulfonamide], the IC50 [2] was 337 ± 123 nM, the “antitumor activity in human tumor xenograft models” value [3] was “single agent antitumor activity” and the “GAG Release” value [4] was “completely blocked”. For the same molecule, the “NO production” value [5] was “completely blocked”, the “PGE2 synthesis” value ([6]; ARC, 7.5 ng/ml IL-1, five days, JNJ 7706621 at 5 μM) was “little effect” and the “PGE2 Inhibition” value ([6]; Pellet Assay) was “No effect”. For the same molecule, the “cytotoxicity to chondrocytes (LDH, words)” value [7] was “little toxicity”.
“REMICADE®: monoclonal antibody against human TNFα” was tested, and the “IL-1β stimulated responses (PGE2, NO, GAG; words)” value ([8]; 5 ng/ml IL-1β) was “little effect”, the “TNFα-induced GAG release” value ([8]; 10 ng/ml TNFα) was “strongly inhibited” and the “GAG Release, inhibition” value [8, 11] was 100% at 1 ng/ml. The “TNFα-induced NO production” value ([9]; 10 ng/ml TNFα) was “strongly inhibited”, the “NO Inhibition” value [9, 11] was 100% at and the “TNFα-induced PGE2 synthesis” value ([10]; 10 ng/ml TNFα) was “strongly inhibited”. For the same molecule, the “PGE2 Inhibition” value ([10]; at 1 ng/ml) was 50% at 1 ng/ml and the “PGE2 Inhibition” value ([10]; at 10 ng/ml) was 100% at.
